Results on 23 compounds are retold here after US8304448B2, “Method for the treatment of metabolic disorder containing benzazole derivatives as an active ingredient” (Korea Research Institute of Bioscience and Biotechnology, priority 2006, dated 2012).

For assay [1], the system named is DGAT. In words: Assay for inhibitory activity against DGAT ([14C]triacylglycerol formation, rat microsomal protein). Format: biochemical. Particulars: rat microsomal protein as enzyme source. The text has this:
The derivatives of Chemical Formula 1 in accordance with the present invention are found to inhibit the enzymatic activity of DGAT at a dose-dependent manner (refer to Table 2 and FIG. 1) as measured in a test in which [^14C]triacylglycerol was quantitatively analyzed after enzymatic reaction between 1,2-diacylglycerol and [^14C]palmitoyl-CoA, with microsomal proteins from rats serving as an enzyme source (refer to Example 1).
After enzymatic reaction between two substrates 1,2-diacylglycerol (Sigma, D0138) and [^14C]palmitoyl-CoA (Amersham, CFA583) with the microsomal protein of rat serving as an enzyme source in accordance with Coleman et al, Methods Enzymol., 98-103, 1992, the resulting product [^14C] triacylglycerol was measured for radioactivity. In detail, to a reaction buffer (175 mM Tris-HCl, pH 8.0, 20 μl bovine serum albumin (10 mg/ml), 100 mM MgCl2, 30 μM [^14C] palmitoyl-CoA (0.02 μCi, Amersham) and 200 μM 1,2-dioleoyl glycerol) was added 10 μl of a solution of the samples in dimethylsulfoxide (DMSO) and then 100˜200 μl of an isolated microsomal protein, followed by reaction at 25° C. for 10 min. The reaction was terminated with 1.5 ml of a mixture of 80:20:2 2-propanol:heptane:water (v:v:v). Thereafter, the [^14C] triacylglycerol thus formed was separated. In this regard, 1 ml of heptane and 0.5 ml of distilled water were added to the reaction mixture, which was then shaken. 1 ml of the supernatant thus formed was mixed with 2 ml of an alkaline ethanol solution (ethanol:0.5 N sodium hydroxide:water=50:10:40, v:v:v), followed by shaking. After being taken, 0.65 ml of the supernatant thus formed was measured for radioactivity using an LSC (liquid scintillation counter). The inhibitory activity against DGAT was calculated according to the following Mathematical Formula 1. The inhibitory effects of the benzazole derivatives on DGAT are summarized in Table 2, below while % DGAT inhibition is plotted against doses of compound 22 and 31 in FIG. 1.
T: Cpm of a test group in which a sample was added to an enzymatic buffer,
C: Cpm of a control in which no samples were added to an enzymatic buffer,
B: Cpm of a control in which a sample was added in the absence of any enzyme source.

For assay [2], the system named is ICR mice fed a high-fat diet. In words: In vivo assay for anti-obesity activity in mice fed a high-fat diet. Particulars: high-fat diet. Details: species or system mouse. How it is done:
Also, the derivatives of Chemical Formula 1 were tested for resistance to obesity by iterative oral administration at a dose of 10 mg/kg into ICR male mice (refer to Example 3). […] When they were administered, the levels of total triglycerides, total cholesterols, and low density lipoprotein (LDL)-cholesterol in the blood recovered to almost normal levels, with a significant increase observed in the level of high density lipoprotein (HDL)-cholesterol in the blood (refer to Tables 6 and 7 and FIGS. 3 and 4).
In order to verify the anti-obesity activity of the benzaldehyde derivatives of Chemical Formula 1 in accordance with the present invention, Compounds 22 and 31 were administered repetitively into rodents as follows.
The experimental animals were 6 week old ICR mice which were purchased from Japan SLC, Inc. via Central Lab. Animal Inc. Korea. They were acclimated to a new environment for one week before use, and fed with a foodstuff commercially available from Deyts, U.S.A. They were bred in an animal lab set at a temperature of 23±3° C. and RH 50±10% under light of 150˜300 Lux for a period of 12 hours (6 a.m.˜6 p.m.) with ventilation 10-20 times/hour. All of the 12 mice used were male, and were organized into two groups of 6. The test group was orally administered once a day at 4 p.m. with 10 mg/kg of the compound (Chemical Formula 1) in the form of a solution in biological saline for 35 days while the control was administered with biological saline only. Xenical, a commercially available lipase inhibitor, was administered orally at a dose of 10 mg/kg once a day as a positive control drug.
The animals were measured for body weight every week and sacrificed on Day 35, after which blood from the heart was sampled. Abdominal fat, epididymal fat, retroperitoneal fat and the liver were excised and weighed. Blood samples were assayed for total triglyceride, total cholesterol, HDL-cholesterol and LDL-cholesterol using respective test kits, all commercially available from Asan Pharmaceutical Co. Ltd., Korea.
For evidence of anti-obesity activity, compounds 22 and 31 were orally administered at regular intervals at a dose of 10 mg/kg into ICR male mice for a predetermined period of time with the concurrent provision of conditional diets thereto. Anatomized abdomens of the animals are given in the photographs of FIG. 2.

Setting [3] is: Day 35, 10 mg/kg oral, Mean ± SD.
Setting [4] is: blood, Day 35, 10 mg/kg oral, Mean ± SD.

For the compound `COC(=O)c1ccc2oc(COc3ccc(Cl)cc3Cl)nc2c1` [Cpd. 1, 2-(2,4-dichloro-phenoxymethyl)-benzoxazole-5-carboxylic acid methyl ester], the “DGAT (% inhibition in 25 μM)” value in assay [1] is −2.64%.

For the compound `COC(=O)c1ccc2oc(COc3ccc(C45CC6CC(CC(C6)C4)C5)cc3)nc2c1` [Cpd. 2, 2-(4-adamantan-1-yl-phenoxymethyl)-benzoxazole-5-carboxylic acid methyl ester], the “DGAT (% inhibition in 25 μM)” value in assay [1] is −25.72%. Consider `COC(=O)c1ccc2nc(COc3ccc(C45CC6CC(CC(C6)C4)C5)cc3)oc2c1` [Cpd. 3, 2-(4-adamantan-1-yl-phenoxymethyl)-benzoxazole-6-carboxylic acid methyl ester], for which the “DGAT (% inhibition in 25 μM)” value in assay [1] was −5.34%.

Regarding `CCCCCCCCCCC[C@@H](C[C@@H]1OC(=O)[C@H]1CCCCCC)OC(=O)[C@H](CC(C)C)NC=O` [Xenical, reference compound], in assay [2] (setting [3]), the “(Tissue Weight/Body Weight) × 100 Abdominal Fat + Epididymal Fat” value is on record as 2.45 ± 1.03, the “(Tissue Weight/Body Weight) × 100 Liver” value amounted to 4.31 ± 0.76, the “(Tissue Weight/Body Weight) × 100 Retroperitoneal Fat” value was 0.75 ± 0.50 and the “(Tissue Weight/Body Weight) × 100 Total Fat” value turned out to be 3.20 ± 1.52. Further, in assay [2] (setting [4]), the “HDL-Cholesterol” value came to 30.28 ± 1.52 mg/dL, the “LDL-Cholesterol” value stood at 20.45 ± 8.99 mg/dL, the “Total Cholesterol” value is 53.75 ± 12.35 mg/dL and the “Total Triglyceride” value is 40.77 ± 6.06 mg/dL. The “inhibition of body weight gain” value in assay [2] (10 mg/kg oral once a day for 35 days) came to 88%. For the same compound, the “Body Weight (g) (Mean ± SD) Week 0” value in assay [2] (10 mg/kg oral once a day, Week 0) worked out at 26.30 ± 1.45 g. In addition, in assay [2] (10 mg/kg oral once a day, Week 1), the “Body Weight (g) (Mean ± SD) Week 1” value worked out at 33.63 ± 1.28 g. For the same compound, the “Body Weight (g) (Mean ± SD) Week 2” value in assay [2] (10 mg/kg oral once a day, Week 2) is recorded as 37.41 ± 2.02 g. Also, in assay [2] (10 mg/kg oral once a day, Week 3), the “Body Weight (g) (Mean ± SD) Week 3” value turned out to be 39.11 ± 0.90 g. For the same compound, the “Body Weight (g) (Mean ± SD) Week 4” value in assay [2] (10 mg/kg oral once a day, Week 4) is 39.95 ± 1.26 g. The “Body Weight (g) (Mean ± SD) Week 5” value in assay [2] (10 mg/kg oral once a day, Week 5) was determined as 41.24 ± 1.60 g. Consider `COC(=O)c1ccc2nc(COc3ccc(Cl)cc3Cl)oc2c1` [compound 5, 2-(2,4-dichloro-phenoxymethyl)-benzoxazole-6-carboxylic acid methyl ester], for which the “DGAT (% inhibition in 25 μM)” value in assay [1] is on record as 1.98%. With `COC(=O)c1ccc2[nH]c(COc3ccc(Cl)cc3Cl)nc2c1` [compound 6, 2-(2,4-dichloro-phenoxymethyl)-1H-benzoimidazole-5-carboxylic acid methyl ester], the “DGAT (% inhibition in 25 μM)” value in assay [1] was 0.63%.

Consider `COC(=O)c1ccc2nc(COc3ccc(C(C)(C)C)cc3C(C)(C)C)oc2c1` [compound 7, 2-(2,4-tert-butyl-phenoxymethyl)-benzoxazole-6-carboxylic acid methyl ester], for which the “DGAT (% inhibition in 25 μM)” value in assay [1] was 34.5%. Consider `COC(=O)c1ccc2[nH]c(COc3ccc([N+](=O)[O-])cc3)nc2c1` [compound 9, 2-(4-nitro-phenoxymethyl)-1H-benzoimidazole-5-carboxylic acid methyl ester], for which, in assay [1], the “DGAT (% inhibition in 5 μM)” value is on record as −5.6% and the “DGAT (% inhibition in 25 μM)” value is 0.61%. As to `O=C(O)c1ccc2oc(COc3ccc(Cl)cc3Cl)nc2c1` [compound 11, 2-(2,4-dichloro-phenoxymethyl)-benzoxazole-5-carboxylic acid], the “DGAT (% inhibition in 25 μM)” value in assay [1] was −16.48%. `O=C(O)c1ccc2oc(COc3ccc(C45CC6CC(CC(C6)C4)C5)cc3)nc2c1` [compound 12, 2-(4-adamantan-1-yl-phenoxymethyl)-benzoxazole-5-carboxylic acid]: in assay [1], the “DGAT (% inhibition in 25 μM)” value was −10.43%. For the compound `O=C(O)c1ccc2nc(COc3ccc(C45CC6CC(CC(C6)C4)C5)cc3)oc2c1` [compound 13, 2-(4-adamantan-1-yl-phenoxymethyl)-benzoxazole-6-carboxylic acid], the “DGAT (% inhibition in 25 μM)” value in assay [1] is listed as −18.53%. For the compound `O=C(O)c1ccc2[nH]c(COc3ccc(C45CC6CC(CC(C6)C4)C5)cc3)nc2c1` [compound 14, 2-(4-adamantan-1-yl-phenoxymethyl)-1H-benzoimidazole-5-carboxylic acid], the “DGAT (% inhibition in 25 μM)” value in assay [1] is recorded as −13.17%. Still for that read-out and setting: then `O=C(O)c1ccc2nc(COc3ccc(Cl)cc3Cl)oc2c1` [compound 15, 2-(2,4-dichloro-phenoxymethyl)-benzoxazole-6-carboxylic acid], with −13.03%; and `O=C(O)c1ccc2[nH]c(COc3ccc(Cl)cc3Cl)nc2c1` [compound 16, 2-(2,4-dichloro-phenoxymethyl)-1H-benzoimidazole-5-carboxylic acid], with −7.37%. `CC(C)(C)c1ccc(OCc2nc3ccc(C(=O)O)cc3o2)cc1` [compound 17, 2-(4-tert-butyl-phenoxymethyl)-benzoxazole-6-carboxylic acid]: the “DGAT (% inhibition in 25 μM)” value in assay [1] was −29.81%.

Regarding `CC(C)(C)c1ccc(OCc2nc3cc(C(=O)O)ccc3[nH]2)cc1` [compound 18, 2-(4-tert-butyl-phenoxymethyl)-1H-benzoimidazole-5-carboxylic acid], in assay [1], the “DGAT (% inhibition in 25 μM)” value was −13.05%. As to `O=C(O)c1ccc2[nH]c(COc3ccc([N+](=O)[O-])cc3)nc2c1` [compound 19, 2-(4-nitro-phenoxymethyl)-1H-benzoimidazole-5-carboxylic acid], in assay [1], the “DGAT (% inhibition in 5 μM)” value worked out at 2.0% and the “DGAT (% inhibition in 25 μM)” value was −5.86%. For the compound `CN(C)C(=O)c1ccc2oc(COc3ccc(C45CC6CC(CC(C6)C4)C5)cc3)nc2c1` [compound 21, 2-(4-adamantan-1-yl-phenoxymethyl)-benzoxazole-5-carboxylic acid dimethylamide], the “DGAT (% inhibition in 25 μM)” value in assay [1] is 10.49%. In the case of `CN(C)CCNC(=O)c1ccc2oc(COc3ccc(C45CC6CC(CC(C6)C4)C5)cc3)nc2c1` [compound 23, 2-(4-adamantan-1-yl-phenoxymethyl)-benzoxazole-5-carboxylic acid (2-dimethylamino-ethyl)-amide], the “DGAT (% inhibition in 25 μM)” value in assay [1] amounted to 8.59%. On to `O=C(NCc1ccco1)c1ccc2nc(COc3ccc(C45CC6CC(CC(C6)C4)C5)cc3)oc2c1` [compound 27], for which the “DGAT (% inhibition in 25 μM)” value in assay [1] was 13.26%.

Turning to `O=C(NCc1ccco1)c1ccc2nc(COc3ccc(Cl)cc3Cl)oc2c1` [compound 28, 2-(2,4-dichloro-phenoxymethyl)-benzoxazole-6-carboxylic acid (furan-2-ylmethyl)-amide], in assay [1], the “DGAT (% inhibition in 25 μM)” value is on record as −8.07%. For the compound `NC(=O)c1ccc2nc(COc3ccc(C45CC6CC(CC(C6)C4)C5)cc3)[nH]c2c1` [compound 29, 2-(4-adamantan-1-yl-phenoxymethyl)-3H-benzoimidazole-5-carboxylic acid amide], in assay [1], the “DGAT (% inhibition in 5 μM)” value was −1.8% and the “DGAT (% inhibition in 25 μM)” value is −13.38%. On to `CN(C)CCNC(=O)c1ccc2[nH]c(COc3ccc(C45CC6CC(CC(C6)C4)C5)cc3)nc2c1` [compound 32, 2-(4-adamantan-1-yl-phenoxymethyl)-1H-benzoimidazole-5-carboxylic acid (2-dimethylamino-ethyl)-amide], for which the “DGAT (% inhibition in 25 μM)” value in assay [1] is −3.08%.
